The values below come from patent US8841312B2, “Fused pyridine, pyrimidine and triazine compounds as cell cycle inhibitors” (Amgen Inc., priority 2007, dated 2014).

The test system of one assay is neointima formation. Particulars: animal models; cited from earlier work.
A further assay addresses Cdk4/CyclinD1 (Homo sapiens (Human), UniProt P11802). The experiment in a line: Cdk4 kinase inhibition assay with recombinant Cdk4/CyclinD1, Rb substrate, [33P]-ATP filter plate. Format: biochemical. As to conditions: 25 μM ATP, read-out: Cdk 4 IC50. An outline of the steps:
(§1)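 Recombinant Cdk4/CyclinD1 or Cdk6/CyclinD3 phosphorylated Rb protein with [33P]-ATP for 1 h at room temperature. Protein was TCA-precipitated on filter plates and bound radioactivity counted. IC50 by nonlinear regression.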

For the next assay, the target named is Cdk6/CyclinD3 (Homo sapiens (Human), UniProt Q00534). The experiment in a line: Cdk6 kinase inhibition assay with recombinant Cdk6/CyclinD3, Rb substrate, [33P]-ATP filter plate. Format: biochemical. As to conditions: 25 μM ATP, read-out: Cdk 6 IC50. Put shortly: as §1
Chain of Cdk6/CyclinD3 (Q00534 whole entry): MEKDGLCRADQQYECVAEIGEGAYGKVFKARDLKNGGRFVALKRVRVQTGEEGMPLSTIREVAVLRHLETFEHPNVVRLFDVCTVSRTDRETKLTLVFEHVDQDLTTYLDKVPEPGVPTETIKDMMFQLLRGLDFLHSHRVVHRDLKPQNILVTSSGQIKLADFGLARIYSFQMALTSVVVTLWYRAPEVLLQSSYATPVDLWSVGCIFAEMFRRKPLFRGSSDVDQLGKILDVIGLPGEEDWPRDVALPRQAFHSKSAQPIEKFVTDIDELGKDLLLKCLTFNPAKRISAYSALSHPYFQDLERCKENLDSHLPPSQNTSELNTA
Chain of Cdk6/CyclinD3 (P30281 whole entry partner): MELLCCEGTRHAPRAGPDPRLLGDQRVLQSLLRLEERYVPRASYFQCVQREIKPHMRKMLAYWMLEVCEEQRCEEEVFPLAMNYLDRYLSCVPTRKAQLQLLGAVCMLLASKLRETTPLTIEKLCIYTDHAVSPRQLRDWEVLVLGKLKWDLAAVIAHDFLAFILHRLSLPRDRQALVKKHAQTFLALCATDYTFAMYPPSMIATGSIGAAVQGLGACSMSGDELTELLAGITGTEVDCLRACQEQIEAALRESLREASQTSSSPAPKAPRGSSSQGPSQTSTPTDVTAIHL

Chain of Cdk4/CyclinD1 (P11802 whole entry): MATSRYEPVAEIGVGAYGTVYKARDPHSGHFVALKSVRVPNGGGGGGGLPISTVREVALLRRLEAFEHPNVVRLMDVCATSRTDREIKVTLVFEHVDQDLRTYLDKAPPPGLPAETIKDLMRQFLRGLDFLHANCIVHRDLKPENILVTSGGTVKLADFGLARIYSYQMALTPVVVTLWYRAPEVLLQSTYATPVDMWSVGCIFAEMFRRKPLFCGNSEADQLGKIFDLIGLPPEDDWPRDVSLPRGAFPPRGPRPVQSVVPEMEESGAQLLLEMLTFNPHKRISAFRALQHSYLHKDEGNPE
Chain of Cdk4/CyclinD1 (P24385 whole entry partner): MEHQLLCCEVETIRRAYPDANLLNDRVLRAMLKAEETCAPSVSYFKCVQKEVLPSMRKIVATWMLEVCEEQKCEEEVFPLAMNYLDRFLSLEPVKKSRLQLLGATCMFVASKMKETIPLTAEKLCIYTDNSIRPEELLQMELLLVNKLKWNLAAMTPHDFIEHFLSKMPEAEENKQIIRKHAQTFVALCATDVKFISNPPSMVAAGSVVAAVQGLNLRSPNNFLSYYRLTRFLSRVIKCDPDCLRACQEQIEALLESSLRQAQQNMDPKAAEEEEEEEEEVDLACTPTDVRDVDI

For `COc1ccc(CNc2nc(N(CCO)CCO)nc3c2ncn3C(C)C)cc1` [CVT-313], the “inhibition of neointima formation” value with neointima formation was “significant inhibition of neointima formation”.

For orientation: IC50 means the midpoint of a concentration-inhibition curve. As for `CN(C)C1CCN(c2ccc(Nc3ncc4c5ccncc5n([C@H]5CCC[C@H]5O)c4n3)nn2)CC1` [Example 355], the IC50 stood at 177 nM on Cdk4/CyclinD1 and 275 nM on Cdk6/CyclinD3.

Turning to `C[C@@H](O)Cn1c2cnccc2c2cnc(Nc3ccc(N4CCNCC4)cn3)nc21` [Example 356], the IC50 amounted to 360 nM on Cdk4/CyclinD1 and 370 nM at Cdk6/CyclinD3.

As to `C[C@@H](O)Cn1c2cnccc2c2cnc(Nc3ccc(N4CCC(N(C)C)CC4)cn3)nc21` [Example 357], the IC50 on Cdk4/CyclinD1 amounted to 294 nM; at Cdk6/CyclinD3, 314 nM.

Consider `C[C@@H](O)Cn1c2cnccc2c2cnc(Nc3ccc(N4CC[C@@H](O)C4)cn3)nc21` [Example 358], for which the IC50 at Cdk4/CyclinD1 was found to be 470 nM; at Cdk6/CyclinD3, 590 nM.

As to `O[C@@H]1CCC[C@@H]1n1c2cnccc2c2cnc(Nc3ccc(N4CCNCC4)cn3)nc21` [Example 361], the values for the IC50 at Cdk4/CyclinD1 and on Cdk6/CyclinD3 were 44 nM and 58 nM, respectively.

For the molecule `C[C@@H](CO)n1c2cnccc2c2cnc(Nc3ccc(N4CCNCC4)cn3)nc21` [Example 369], the IC50 at Cdk4/CyclinD1 came out at 45 nM; on Cdk6/CyclinD3, 29 nM.

Consider `CNC1CCN(c2ccc(Nc3ncc4c5ccncc5n(C5CCC5)c4n3)nn2)CC1` [Example 434], for which the IC50 on Cdk4/CyclinD1 was determined as 13 nM; at Cdk6/CyclinD3, 19 nM.

With `O[C@@H]1CCN(c2ccc(Nc3ncc4c5ccncc5n(C5CCC5)c4n3)nc2)C1` [Example 435], the figures for the IC50 at Cdk4/CyclinD1 and on Cdk6/CyclinD3 were 42 nM and 92 nM, respectively.

For `C[C@H](CO)NC1CCN(c2ccc(Nc3ncc4c5ccncc5n(C5CCCC5)c4n3)nc2)CC1` [Example 436, (2R)-2-((1-(6-((9-cyclopentyl-9H-pyrido[4′,3′:4,5]pyrrolo[2,3-d]pyrimidin-2-yl)amino)-3-pyridinyl)-4-piperidinyl)amino)-1-propanol], the values for the IC50 at Cdk4/CyclinD1 and on Cdk6/CyclinD3 were 13 nM and 5.1 nM, respectively.

As for `c1cc2c3cnc(Nc4ccc(N5CCC(N6CCCC6)CC5)nn4)nc3n(C3CCCC3)c2cn1` [Example 437], the IC50 was 23 nM on Cdk4/CyclinD1 and 30 nM at Cdk6/CyclinD3.

Consider `OCCNC1CCN(c2ccc(Nc3ncc4c5ccncc5n(C5CCCC5)c4n3)nn2)CC1` [Example 438], for which the IC50 on Cdk4/CyclinD1 is 4.2 nM; on Cdk6/CyclinD3, 12 nM.

As to `C[C@H](O)CNC1CCN(c2ccc(Nc3ncc4c5ccncc5n(C5CCCC5)c4n3)nn2)CC1` [Example 439], the IC50 on Cdk4/CyclinD1 amounted to 3.7 nM; on Cdk6/CyclinD3, 5.7 nM.

On to `CN(CCO)C1CCN(c2ccc(Nc3ncc4c5ccncc5n(C5CCCC5)c4n3)nn2)CC1` [Example 440], for which the values for the IC50 at Cdk4/CyclinD1 and at Cdk6/CyclinD3 were 5.8 nM and 14 nM, respectively.

On to `C[C@@H](O)CNC1CCN(c2ccc(Nc3ncc4c5ccncc5n(C5CCCC5)c4n3)nn2)CC1` [Example 441], for which the IC50 at Cdk4/CyclinD1 was 1.7 nM; on Cdk6/CyclinD3 it was 3.8 nM.

Turning to `C[C@@H](CO)NC1CCN(c2ccc(Nc3ncc4c5ccncc5n(C5CCCC5)c4n3)nn2)CC1` [Example 442], the IC50 worked out at 1.5 nM at Cdk4/CyclinD1 and 13 nM at Cdk6/CyclinD3.

Turning to `CNCCN(C)C1CCN(c2ccc(Nc3ncc4c5ccncc5n(C5CCCC5)c4n3)nn2)CC1` [Example 443], the IC50 is 4.8 nM on Cdk4/CyclinD1 and 16 nM at Cdk6/CyclinD3.

With `C[C@H](CO)NC1CCN(c2ccc(Nc3ncc4c5ccncc5n(C5CCCC5)c4n3)nn2)CC1` [Example 444], the IC50 amounted to 1.9 nM on Cdk4/CyclinD1 and 11 nM on Cdk6/CyclinD3.

As for `OCC(CO)NC1CCN(c2ccc(Nc3ncc4c5ccncc5n(C5CCCC5)c4n3)nn2)CC1` [Example 445], the IC50 on Cdk4/CyclinD1 worked out at 2.2 nM; on Cdk6/CyclinD3, 6.3 nM.

Turning to `OC[C@H](O)CNC1CCN(c2ccc(Nc3ncc4c5ccncc5n(C5CCCC5)c4n3)nn2)CC1` [Example 446], the IC50 amounted to 1.3 nM at Cdk4/CyclinD1 and 4.8 nM on Cdk6/CyclinD3.

In the case of `c1cc2c3cnc(Nc4ccc(N5CCC(N6CCOCC6)CC5)nn4)nc3n(C3CCCC3)c2cn1` [Example 447], the results for the IC50 at Cdk4/CyclinD1 and on Cdk6/CyclinD3 were 2.8 nM and 26 nM, respectively.

Take `OC1CN(C2CCN(c3ccc(Nc4ncc5c6ccncc6n(C6CCCC6)c5n4)nn3)CC2)C1` [Example 448]: the IC50 on Cdk4/CyclinD1 stood at 10 nM; at Cdk6/CyclinD3, 22 nM.

For `O[C@@H]1CCN(C2CCN(c3ccc(Nc4ncc5c6ccncc6n(C6CCCC6)c5n4)nn3)CC2)C1` [Example 449], the results for the IC50 at Cdk4/CyclinD1 and on Cdk6/CyclinD3 were 12 nM and 36 nM, respectively.

Regarding `O[C@H]1CCN(C2CCN(c3ccc(Nc4ncc5c6ccncc6n(C6CCCC6)c5n4)nn3)CC2)C1` [Example 450], the IC50 on Cdk4/CyclinD1 amounted to 10 nM; on Cdk6/CyclinD3 it was 16 nM.

As for `O[C@@H]1CCCN(C2CCN(c3ccc(Nc4ncc5c6ccncc6n(C6CCCC6)c5n4)nn3)CC2)C1` [Example 451], the IC50 was determined as 13 nM on Cdk4/CyclinD1 and 18 nM at Cdk6/CyclinD3.

As to `O[C@H]1CCCN(C2CCN(c3ccc(Nc4ncc5c6ccncc6n(C6CCCC6)c5n4)nn3)CC2)C1` [Example 452], the IC50 at Cdk4/CyclinD1 turned out to be 7 nM; at Cdk6/CyclinD3 it was 30 nM.

Consider `OCCCNC1CCN(c2ccc(Nc3ncc4c5ccncc5n(C5CCCC5)c4n3)nn2)CC1` [Example 453], for which the IC50 on Cdk4/CyclinD1 was determined as 4.6 nM; on Cdk6/CyclinD3 it was 13 nM.

For `CCN(CCO)C1CCN(c2ccc(Nc3ncc4c5ccncc5n(C5CCCC5)c4n3)nn2)CC1` [Example 454], the figures for the IC50 on Cdk4/CyclinD1 and at Cdk6/CyclinD3 were 5.2 nM and 11 nM, respectively.

In the case of `OC1CCN(C2CCN(c3ccc(Nc4ncc5c6ccncc6n(C6CCCC6)c5n4)nn3)CC2)CC1` [Example 455], the IC50 on Cdk4/CyclinD1 stood at 7 nM; at Cdk6/CyclinD3, 9 nM.

In the case of `FC(F)(F)CNC1CCN(c2ccc(Nc3ncc4c5ccncc5n(C5CCCC5)c4n3)nn2)CC1` [Example 456], the IC50 at Cdk4/CyclinD1 is 110 nM; on Cdk6/CyclinD3 it was 380 nM.

For `CN(CCO)C1CCN(c2ccc(Nc3ncc4c5ccncc5n(C5CCCC5)c4n3)nc2)CC1` [Example 457], the IC50 at Cdk4/CyclinD1 is 19 nM; at Cdk6/CyclinD3, 37 nM.

Consider `OCCNC1CCN(c2ccc(Nc3ncc4c5ccncc5n(C5CCCC5)c4n3)nc2)CC1` [Example 458], for which the IC50 on Cdk4/CyclinD1 is 4.8 nM; at Cdk6/CyclinD3, 5.1 nM.

Take `O[C@H]1CCN(C2CCN(c3ccc(Nc4ncc5c6ccncc6n(C6CCCC6)c5n4)nc3)CC2)C1` [Example 462]: the values for the IC50 at Cdk4/CyclinD1 and on Cdk6/CyclinD3 were 340 nM and 350 nM, respectively.

As for `OC1CCN(C2CCN(c3ccc(Nc4ncc5c6ccncc6n(C6CCCC6)c5n4)nc3)CC2)CC1` [Example 463], the IC50 on Cdk4/CyclinD1 was determined as 15 nM; on Cdk6/CyclinD3, 18 nM.

In the case of `CCNC1CCN(c2ccc(Nc3ncc4c5ccncc5n(C5CCCC5)c4n3)nc2)CC1` [Example 464], the IC50 on Cdk4/CyclinD1 is 2 nM; on Cdk6/CyclinD3, 3.1 nM.

Turning to `c1cc2c3cnc(Nc4ccc(N5CCC(NC6CC6)CC5)cn4)nc3n(C3CCCC3)c2cn1` [Example 465], the IC50 on Cdk4/CyclinD1 was 4.1 nM; on Cdk6/CyclinD3, 12 nM.

With `CCCNC1CCN(c2ccc(Nc3ncc4c5ccncc5n(C5CCCC5)c4n3)nc2)CC1` [Example 466], the IC50 was 4.7 nM at Cdk4/CyclinD1 and 14 nM at Cdk6/CyclinD3.

Turning to `FCCNC1CCN(c2ccc(Nc3ncc4c5ccncc5n(C5CCCC5)c4n3)nc2)CC1` [Example 467], the IC50 on Cdk4/CyclinD1 is 7.2 nM; on Cdk6/CyclinD3, 21 nM.

`c1cc2c3cnc(Nc4ccc(N5CCC(NC6CCC6)CC5)cn4)nc3n(C3CCCC3)c2cn1` [Example 468]: the IC50 at Cdk4/CyclinD1 amounted to 4.2 nM; at Cdk6/CyclinD3, 19 nM.

Consider `CC(C)NC1CCN(c2ccc(Nc3ncc4c5ccncc5n(C5CCCC5)c4n3)nc2)CC1` [Example 469], for which the IC50 was 5.7 nM on Cdk4/CyclinD1 and 20 nM at Cdk6/CyclinD3.

With `FC(F)(F)CNC1CCN(c2ccc(Nc3ncc4c5ccncc5n(C5CCCC5)c4n3)nc2)CC1` [Example 470], the IC50 is 11 nM on Cdk4/CyclinD1 and 38 nM on Cdk6/CyclinD3.

`CN(CC(=O)O)C1CCN(c2ccc(Nc3ncc4c5ccncc5n(C5CCCC5)c4n3)nc2)CC1` [Example 471]: the IC50 was 4.1 nM at Cdk4/CyclinD1 and 18 nM on Cdk6/CyclinD3.

With `COC(=O)CNC1CCN(c2ccc(Nc3ncc4c5ccncc5n(C5CCCC5)c4n3)nc2)CC1` [Example 472], the IC50 on Cdk4/CyclinD1 amounted to 24 nM; on Cdk6/CyclinD3, 34 nM.

Regarding `CCN(CCO)C1CCN(c2ccc(Nc3ncc4c5ccncc5n(C5CCCC5)c4n3)nc2)CC1` [Example 473], the figures for the IC50 at Cdk4/CyclinD1 and at Cdk6/CyclinD3 were 9.7 nM and 28 nM, respectively.

Turning to `OC1CN(C2CCN(c3ccc(Nc4ncc5c6ccncc6n(C6CCCC6)c5n4)nc3)CC2)C1` [Example 474], the IC50 came to 5 nM on Cdk4/CyclinD1 and 12 nM on Cdk6/CyclinD3.

With `C[C@@H](CO)NC1CCN(c2ccc(Nc3ncc4c5ccncc5n(C5CCCC5)c4n3)nc2)CC1` [Example 475], the figures for the IC50 at Cdk4/CyclinD1 and on Cdk6/CyclinD3 were 2.6 nM and 8 nM, respectively.

On to `COC(=O)CNC1CCN(c2ccc(Nc3ncc4c5ccncc5n(C5CCCC5)c4n3)nn2)CC1` [Example 476], for which the IC50 on Cdk4/CyclinD1 was 1.7 nM; at Cdk6/CyclinD3, 26 nM.

For `O=C(O)CNC1CCN(c2ccc(Nc3ncc4c5ccncc5n(C5CCCC5)c4n3)nc2)CC1` [Example 477], the IC50 on Cdk4/CyclinD1 turned out to be 2 nM; on Cdk6/CyclinD3, 5.1 nM.

For the molecule `O=C(O)CNC1CCN(c2ccc(Nc3ncc4c5ccncc5n(C5CCCC5)c4n3)nn2)CC1` [Example 478], the values for the IC50 on Cdk4/CyclinD1 and on Cdk6/CyclinD3 were 2 nM and 5.7 nM, respectively.

Turning to `CN(C)CCN(C)C1CCN(c2ccc(Nc3ncc4c5ccncc5n(C5CCCC5)c4n3)nn2)CC1` [Example 479], the IC50 at Cdk4/CyclinD1 is 8 nM; at Cdk6/CyclinD3 it was 17 nM.

Consider `CN(C)CCNC1CCN(c2ccc(Nc3ncc4c5ccncc5n(C5CCCC5)c4n3)nn2)CC1` [Example 480], for which the values for the IC50 on Cdk4/CyclinD1 and at Cdk6/CyclinD3 were 4.9 nM and 10 nM, respectively.

In the case of `OC[C@@H](O)CNC1CCN(c2ccc(Nc3ncc4c5ccncc5n(C5CCCC5)c4n3)nn2)CC1` [Example 481], the values for the IC50 at Cdk4/CyclinD1 and at Cdk6/CyclinD3 were 8 nM and 12 nM, respectively.
